Measurements taken from patent publication US20150314021A1, “STERILIZATION METHOD COMPRISING STERILIZATION FLUID AND ULTRASONICALLY GERERATED CAVITATION MICROBUBBLES” (DEVIS TECHNOLOGIES INC., priority 2012, published 2015).
Like-named read-outs stand apart in the source and are kept apart here.

Assays:
[1] = tested on: Bacillus atrophaeus and Bacillus stearothermophilus; assay: Reduction in viable cell count after 5 min exposure to sterilant and/or ultrasound; type: cell-based
Method: Comparative testing with exposure for 5 min to ultrasound at 250 kHz, 500 kHz and 1 MHz and using ultrasound and sterilant in separation as well as in combination was conducted and the reduction in viable cell count was determined using standard methodology.

[2] = tested on: Bacillus atrophaeus and Bacillus stearothermophilus; assay: Growth of surviving bacteria colonies after exposure; type: cell-based; details: 500 kHz test; observed at 24, 48 and 96 hours (FIGS. 8 and 9)
Text: In the parallel tests with hydrogen peroxide and ultrasound, the effect was much less significant (see FIG. 10) than with the test series using ultrasound and ozone. The effect seems to be more evident with ozone than with hydrogen peroxide. […] At the very least their reproductive system appears to have been severely compromised.

[3] = 500 kHz test series, cells suspended in distilled water, ozone 3.7 ppm, hydrogen peroxide 1.5% w/w, glutaraldehyde 0.2%, control normalized 100%

Compound | Percentage reduction in number of viable cells upon a 5 minute exposure [1, 3] [%] | inhibition at 1.5 % strength ([1]; 1 MHz test series, cells suspended in distilled water, ozone 3.7 ppm, hydrogen peroxide 1.5% w/w, control normalized 100%, read-out: Percentage reduction in number of viable cells upon a 5 minute exposure) [%] | inhibition at 1.5 % strength ([1]; read-out: Percentage reduction in number of viable cells upon a 5 minute exposure, 500 kHz test series, cells suspended in distilled water, ozone 3.7 ppm, hydrogen peroxide 1.5% w/w, glutaraldehyde 0.2%, control normalized 100%) [%] | Percentage reduction in number of viable cells upon a 5 minute exposure ([1]; 1 MHz test series, cells suspended in distilled water, ozone 3.7 ppm, hydrogen peroxide 1.5% w/w, control normalized 100%) [%] | growth of surviving bacteria colonies after exposure [2]
O=CCCCC=O [Glutaraldehyde, glutaraldehdye] | 86 |  |  |  | 
OO [Hydrogen Peroxide, hydrogen peroxide] |  | 68 | 59 |  | 
O=[O+][O-] [Ozone] | 81 |  |  | 71 | bacteria colonies were visible after 24 hours
